The results in this text go back to BindingDB's records for doi:10.1021/jm051296s (University of Southern California, 2006).

Some results are limits rather than exact numbers.

The target in the assay is Integrin alpha-V/beta-3 (Homo sapiens, UniProt P05106+P06756). As to the kind of experiment: Inhibition of [125I]echistatin binding to integrin alphaVbeta3 receptor.
Sequence of Integrin alpha-V/beta-3 (P05106 27-788 limits assumed): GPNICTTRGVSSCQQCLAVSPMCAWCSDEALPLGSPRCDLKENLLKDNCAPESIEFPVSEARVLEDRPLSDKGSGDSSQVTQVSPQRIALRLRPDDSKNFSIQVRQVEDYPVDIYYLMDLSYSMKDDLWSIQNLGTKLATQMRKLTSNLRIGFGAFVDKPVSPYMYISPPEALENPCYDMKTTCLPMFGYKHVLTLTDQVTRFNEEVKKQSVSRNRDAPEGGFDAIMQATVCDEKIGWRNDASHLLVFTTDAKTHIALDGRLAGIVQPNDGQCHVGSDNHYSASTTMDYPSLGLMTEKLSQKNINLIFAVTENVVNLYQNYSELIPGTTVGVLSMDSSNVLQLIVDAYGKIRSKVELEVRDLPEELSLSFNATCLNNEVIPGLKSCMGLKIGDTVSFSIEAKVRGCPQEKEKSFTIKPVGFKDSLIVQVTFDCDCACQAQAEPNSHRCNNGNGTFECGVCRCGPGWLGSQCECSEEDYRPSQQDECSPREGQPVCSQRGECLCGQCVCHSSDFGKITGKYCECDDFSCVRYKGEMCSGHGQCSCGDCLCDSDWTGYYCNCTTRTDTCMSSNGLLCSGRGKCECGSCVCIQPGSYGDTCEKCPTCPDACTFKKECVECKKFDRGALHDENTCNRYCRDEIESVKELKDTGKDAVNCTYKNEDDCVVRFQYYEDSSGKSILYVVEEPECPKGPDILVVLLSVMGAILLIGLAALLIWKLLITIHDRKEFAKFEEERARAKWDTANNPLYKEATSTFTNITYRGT
Sequence of Integrin alpha-V/beta-3 (P06756 31-889 limits assumed): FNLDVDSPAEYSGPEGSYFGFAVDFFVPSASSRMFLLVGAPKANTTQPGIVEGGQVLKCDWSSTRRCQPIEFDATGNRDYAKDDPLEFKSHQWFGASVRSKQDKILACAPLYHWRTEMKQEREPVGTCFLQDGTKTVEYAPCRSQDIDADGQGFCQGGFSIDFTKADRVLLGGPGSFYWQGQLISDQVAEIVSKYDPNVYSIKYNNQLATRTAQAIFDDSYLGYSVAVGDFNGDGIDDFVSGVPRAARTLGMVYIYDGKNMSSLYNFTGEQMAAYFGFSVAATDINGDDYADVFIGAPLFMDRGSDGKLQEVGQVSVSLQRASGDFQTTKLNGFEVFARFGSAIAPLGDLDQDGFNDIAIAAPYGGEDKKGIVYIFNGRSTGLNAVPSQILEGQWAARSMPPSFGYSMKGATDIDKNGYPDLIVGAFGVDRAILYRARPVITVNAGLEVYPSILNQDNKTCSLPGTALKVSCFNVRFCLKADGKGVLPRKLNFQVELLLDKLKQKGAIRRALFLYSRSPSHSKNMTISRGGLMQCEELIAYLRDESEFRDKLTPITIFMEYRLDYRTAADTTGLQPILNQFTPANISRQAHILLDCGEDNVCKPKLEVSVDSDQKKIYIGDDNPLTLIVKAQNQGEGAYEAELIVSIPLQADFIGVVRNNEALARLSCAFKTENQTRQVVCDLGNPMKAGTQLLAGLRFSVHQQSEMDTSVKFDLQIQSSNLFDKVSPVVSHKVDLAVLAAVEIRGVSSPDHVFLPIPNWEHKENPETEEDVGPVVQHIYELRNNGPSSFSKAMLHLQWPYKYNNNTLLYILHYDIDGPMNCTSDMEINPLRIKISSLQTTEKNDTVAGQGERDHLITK
Sequence of Integrin alpha-V/beta-3 (P06756 891-1048 limits assumed): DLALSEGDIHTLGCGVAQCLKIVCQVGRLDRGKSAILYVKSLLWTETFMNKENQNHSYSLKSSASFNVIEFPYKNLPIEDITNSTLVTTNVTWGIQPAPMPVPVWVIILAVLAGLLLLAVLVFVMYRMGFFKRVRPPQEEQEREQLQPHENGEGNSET

`O=C(O)c1cccc(-c2ccc(CN=Nc3nc4nonc4nc3Nc3ccc(F)cc3)o2)c1` [3-(5-{[6-(4-fluoro-phenylamino)-[1,2,5]oxadiazolo[3,4-b]pyrazin-5-yl]-hydrazonomethyl}-furan-2-yl)-benzoic acid] showed a half-inhibitory concentration (IC50) above 1 µM.

As usually defined, the IC50 is the concentration needed to halve the response being measured. Lower therefore signals greater potency.
